The source of these data is patent US7691848B2, “Pyrrolobenzodiazepine arylcarboxamides and derivatives thereof as follicle-stimulating hormone receptor antagonists” (Wyeth, priority 2005, dated 2010).

Where a name gives a salt, the structure may show the parent alone. A value given as a limit tells only on which side of the number the result lay.

One series addresses T1, human FSH receptor (Homo sapiens, UniProt P23945).
T1 construct: host or cells: CHO-K1 (CHO FSH-R 6CRE-Luc, 1D7 cells)
T1 sequence (P23945 18-695): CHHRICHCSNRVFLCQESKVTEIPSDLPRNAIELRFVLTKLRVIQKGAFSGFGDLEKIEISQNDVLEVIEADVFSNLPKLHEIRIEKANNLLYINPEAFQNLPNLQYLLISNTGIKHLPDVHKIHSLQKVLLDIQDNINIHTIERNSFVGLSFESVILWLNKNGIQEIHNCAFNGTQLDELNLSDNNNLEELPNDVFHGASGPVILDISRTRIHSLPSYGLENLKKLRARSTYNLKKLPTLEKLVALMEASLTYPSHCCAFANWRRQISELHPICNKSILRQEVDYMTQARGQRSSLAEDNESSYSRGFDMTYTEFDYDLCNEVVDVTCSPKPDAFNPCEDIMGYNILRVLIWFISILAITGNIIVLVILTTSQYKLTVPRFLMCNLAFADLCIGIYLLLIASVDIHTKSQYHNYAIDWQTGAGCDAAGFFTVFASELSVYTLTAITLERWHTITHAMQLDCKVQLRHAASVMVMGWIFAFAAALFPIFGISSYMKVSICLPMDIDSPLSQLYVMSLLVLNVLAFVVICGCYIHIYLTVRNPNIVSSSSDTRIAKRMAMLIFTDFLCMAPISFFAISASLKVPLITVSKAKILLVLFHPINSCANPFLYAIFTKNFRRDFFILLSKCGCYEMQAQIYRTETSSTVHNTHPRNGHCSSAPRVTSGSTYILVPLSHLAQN
The experiment in a line: Follicle-Stimulating Hormone Receptor-Dependent Cre-Luciferase Reporter Gene Assay (CHO FSH-R 6CRE-Luc cells). The format is cell-based. The following applies: for IC50: dose-response format, in presence of EC50 of purified human FSH. The text has this:
Follicle-Stimulating Hormone Receptor-Dependent Cre-Luciferase Reporter Gene Assay for the Identification of Follicle-Stimulating Hormone (FSH) Antagonists
A Chinese hamster ovarian cell line that stably produces the human FSH receptor and a luciferase reporter gene regulated by cAMP response elements was used to identify and determine the relative potencies of human FSH receptor antagonists. See for example, Kelton, C. A., et al. Mol. Cell. Endocrinol. 89:141-151 (1992), Tilly, J. L., et al. Endocrinology 131:799-806(1992), and George, S. E., et al. J. Biomol. Screening 2:235-240 (1997).
Compound Vehicle: Stock compounds were solubilized in an appropriate vehicle, e.g., phosphate buffered saline (PBS) or dimethyl sulfoxide (DMSO), at 30 mM. The compounds were subsequently diluted in DMSO to working dilutions of 1 and 20 or 30 mM for 2-dose testing format and 1 μM-10 mM for dose-response format. The DMSO dilutions were diluted 500-fold in sterile growth medium [D-MEM/F-12 (GIBCO/BRL; Grand Island, NY) containing 15 mM HEPES, 2 mM 1-glutamine, pyridoxine hydrochloride, phenol red and 5% FetalClone® II (HyClone Laboratories, Inc; Logan, Utah), 0.2% DMSO, 100 units penicillin G/ml, and 100 μg streptomycin sulfate/ml (GIBCO/BRL)]. The concentration of the vehicle in each of the compound dilutions was the same.
Positive Controls: Purified human FSH (>98%) was purchased from Cortex Biochem, Inc. (San Leandro, Calif.) and 3-[(2S*,5R*)-5-{[2-(1H-Indol-3-yl)-ethylcarbamoyl]-methyl}-4-oxo-2-(5-phenylethynyl-thiophen-2-yl)-thiazolidin-3-yl]-benzamide (an FSH-R thiazolidinone antagonist) was prepared by processes described by R. A. Scheuerman et al. in U.S. Pat. No. 6,426,357 (Affymax).
The CHO FSH-R 6CRE-Luc cells (1D7 cells) were obtained from Affymax (Palo Alto, Calif.). These Chinese hamster ovary cells (CHO-K1) were engineered genetically to stably express the recombinant human FSH receptor gene and a luciferase reporter gene under the regulation of 6 copies of a cAMP response element. The cells were plated one day prior to treatment into 96-well white opaque plates at a density of 50,000 cells/100 μl/well in growth medium. On the day of treatment, the growth medium was removed from the wells by aspiration and 50 μl of fresh growth medium was added to each well. The cells were incubated at 37° C. in a humidified incubator with 5% CO2/95% air.
The treated cells were incubated for 4 hours at 37° C. in a humidified incubator with 5% CO2/95% air. At the end of the incubation period, luciferase activity was measured by chemiluminescence using a commercially available kit (LucScreen, Tropix, Inc., Bedford, Mass.) according to the manufacturer's specifications, except that Buffer 1 and Buffer 2 were mixed together in equal proportion prior to the addition of 100 μl of the combined reagents to each well. Chemiluminescence was detected using a luminometer (EG & G Berthold Microlumat LB 96 P, Wallac, Gaithersburg, Md.) with chemiluminescence measured for 1 sec/well. Background luminescence was measured for each well prior to the addition of the LucScreen reagent.
In the 96-well 2-dose format, each compound was tested in duplicate at each dose. […] One plate was used to test a maximum of 22 compounds.
The EC50 of purified human FSH alone was tested in triplicate with each test compound. The doses chosen to test each compound were extrapolated from the initial 2-dose screening process. Along with the test compounds, purified human FSH also was tested in a dose response (0.03, 0.1, 0.3, 1, 3, 10, and 30 ng/ml) for a positive control and quality control. One plate was used for 3 test compounds and the FSH positive control.
Luciferase activity is expressed as relative light units/sec/well. Luciferase activity in antagonist was compared to the appropriate negative and positive controls. For 2-dose testing, results are reported as luciferase activity and are expressed as percent inhibition of the response obtained from the EC50 of FSH.

Where [1] appears, read: 2-dose format, concentration in parentheses 30 μM, inhibition of the response to EC50 of FSH.

`Cc1ccccc1-c1ccc(C(=O)N2Cc3ccc(C(=O)NCCc4ccc5c(c4)OCO5)n3Cc3ccccc32)cc1C` (as salt: hydrochloride) [Example 33] showed a melting point of 154 to 157 °C.

`COc1ccccc1-c1ccc(C(=O)N2Cc3ccc(C(=O)NCc4c(Cl)cccc4Oc4ccccc4)n3Cc3ccccc32)cc1` [Example 3, N-(2-CHLORO-6-PHENOXYBENZYL)-10-[(2′-METHOXY-1,1′-BIPHENYL-4-YL)CARBONYL]-10,11-DIHYDRO-5H-PYRROLO[2,1-C][1,4]BENZODIAZEPINE-3-CARBOXAMIDE]: on human FSH receptor (setting [1]), the inhibition at 30 µM turned out to be 8%.

In turn, `COc1ccccc1-c1ccc(C(=O)N2Cc3ccc(C(=O)N[C@@H](CO)c4ccccc4)n3Cc3ccccc32)cc1` [Example 4] showed a melting point of 195 to 196 °C. Moreover, the inhibition at 30 µM at human FSH receptor (setting [1]) came to 9%.

Take `COc1ccccc1-c1ccc(C(=O)N2Cc3ccc(C(=O)N[C@H](CO)c4ccccc4)n3Cc3ccccc32)cc1` [Example 5]: the melting point fell in the range of 196 to 197 °C. Also, the inhibition at 30 µM at human FSH receptor (setting [1]) stood at 14%.

As to `Cc1ccccc1-c1ccc(C(=O)N2Cc3ccc(C(=O)NCc4ccc(O)cc4)n3Cc3ccccc32)cc1C` [Example 9], on human FSH receptor (setting [1]), the inhibition at 30 µM came to 37%.

For the compound `Cc1ccccc1-c1ccc(C(=O)N2Cc3ccc(C(=O)NCc4ccc(CN)cc4)n3Cc3ccccc32)cc1C` [Example 11], the IC50 at human FSH receptor turned out to be 14.9 µM.

Consider `Cc1ccccc1-c1ccc(C(=O)N2Cc3ccc(C(=O)NCc4cccc(CN)c4)n3Cc3ccccc32)cc1C` [Example 12], for which the IC50 at human FSH receptor stood at 11.9 µM.

On to `Cc1ccccc1-c1ccc(C(=O)N2Cc3ccc(C(=O)NC(C)c4ccccc4)n3Cc3ccccc32)cc1C` (stereo not drawn) [Example 13], for which the melting point lay in the range of 118 to 124 °C. In addition, the IC50 on human FSH receptor came to 8.2 µM.

As to `Cc1ccccc1-c1ccc(C(=O)N2Cc3ccc(C(=O)NCc4ccc(OC(F)(F)F)cc4)n3Cc3ccccc32)cc1C` [Example 19], the melting point is 147 to 149 °C. The inhibition at 30 µM at human FSH receptor (setting [1]) was found to be 30%.

Turning to `Cc1ccccc1-c1ccc(C(=O)N2Cc3ccc(C(=O)NCc4ccccc4C(F)(F)F)n3Cc3ccccc32)cc1C` [Example 24], the melting point lay in the range of 126 to 128 °C. Further, on human FSH receptor, the IC50 is > 30 µM.

The compound `Cc1ccccc1-c1ccc(C(=O)N2Cc3ccc(C(=O)NCCCc4ccccc4)n3Cc3ccccc32)cc1C` [Example 25] came in with a melting point of 183 to 184 °C. Moreover, the inhibition at 30 µM on human FSH receptor (setting [1]) was determined as 59%.

`Cc1ccccc1-c1ccc(C(=O)N2Cc3ccc(C(=O)NCCc4cccc(Cl)c4)n3Cc3ccccc32)cc1C` [Example 26] showed a melting point of 174 to 176 °C. In addition, the inhibition at 30 µM at human FSH receptor (setting [1]) was determined as 62%.

Compound `Cc1ccccc1-c1ccc(C(=O)N2Cc3ccc(C(=O)NCCc4ccc(Cl)cc4)n3Cc3ccccc32)cc1C` [Example 27] returned a melting point of 169 to 171 °C. Further, the inhibition at 30 µM at human FSH receptor (setting [1]) worked out at 52%.

`COc1ccc(CCNC(=O)c2ccc3n2Cc2ccccc2N(C(=O)c2ccc(-c4ccccc4C)c(C)c2)C3)cc1OC` [Example 28, N-[2-(3,4-DIMETHOXYPHENYL)ETHYL]-10-[(2,2′-DIMETHYL-1,1′-BIPHENYL-4-YL)CARBONYL]-10,11- DIHYDRO-5H-PYRROLO[2,1-C][1,4]BENZODIAZEPINE-3-CARBOXAMIDE] came in with a melting point of 130 to 136 °C. On human FSH receptor, the IC50 is > 30 µM.

`Cc1ccc(CCNC(=O)c2ccc3n2Cc2ccccc2N(C(=O)c2ccc(-c4ccccc4C)c(C)c2)C3)cc1` [Example 29]: the melting point is 161 to 163 °C. Further, on human FSH receptor (setting [1]), the inhibition at 30 µM stood at 52%.

Turning to `COc1ccc(CCNC(=O)c2ccc3n2Cc2ccccc2N(C(=O)c2ccc(-c4ccccc4C)c(C)c2)C3)cc1` [Example 30], the melting point was in the range of 170 to 172 °C. Moreover, on human FSH receptor (setting [1]), the inhibition at 30 µM is 62%.

Consider `Cc1ccccc1-c1ccc(C(=O)N2Cc3ccc(C(=O)NC(C)CCc4ccccc4)n3Cc3ccccc32)cc1C` (stereo not drawn) [Example 32], for which the melting point is 152 to 154 °C. Besides, at human FSH receptor, the IC50 was ~30 µM.

The compound `COc1ccc(CNC(=O)c2ccc3n2Cc2ccccc2N(C(=O)c2ccc(-c4ccccc4C)c(OC)c2)C3)cc1` [Example 36, N-(4-METHOXYBENZYL)-10-[(2-METHOXY-2′-METHYL-1,1′-BIPHENYL-4-YL)CARBONYL]-10,11-DIHYDRO-5H-PYRROLO[2,1-C][1,4]BENZODIAZEPINE-3-CARBOXAMIDE] yielded a melting point of 178 to 179 °C. Also, on human FSH receptor (setting [1]), the inhibition at 30 µM was found to be 60%.

For the compound `COc1cc(C(=O)N2Cc3ccc(C(=O)NCc4ccccc4C(F)(F)F)n3Cc3ccccc32)ccc1-c1ccccc1C` [Example 39, 10-[(2-METHOXY-2′-METHYL-1,1′-BIPHENYL-4-YL)CARBONYL]-N-[2-(TRIFLUOROMETHYL)BENZYL]-10,11-DIHYDRO-5H-PYRROLO[2,1-C][1,4]BENZODIAZEPINE-3-CARBOXAMIDE], the melting point lay within 165 to 167 °C. The IC50 at human FSH receptor is > 30 µM.

`COc1cc(C(=O)N2Cc3ccc(C(=O)NCc4ccccc4C)n3Cc3ccccc32)ccc1-c1ccccc1C` [Example 41, 10-[(2-METHOXY-2′-METHYL-1,1′-BIPHENYL-4-YL)CARBONYL]-N-(2-METHYLBENZYL)-10,11-DIHYDRO-5H-PYRROLO[2,1-C][1,4]BENZODIAZEPINE-3-CARBOXAMIDE] displayed a melting point of 204 °C. In addition, the inhibition at 30 µM on human FSH receptor (setting [1]) was 62%.

Regarding `COc1cc(C(=O)N2Cc3ccc(C(=O)NCCc4cccc(Cl)c4)n3Cc3ccccc32)ccc1-c1ccccc1C` [Example 51, N-[2-(3-CHLOROPHENYLETHYL]-10-[(2-METHOXY-2′-METHYL-1,1′-BIPHENYL-4-YL)CARBONYL]-10,11-DIHYDRO-5H-PYRROLO[2,1-C][1,4]BENZODIAZEPINE-3-CARBOXAMIDE], at human FSH receptor, the IC50 is > 30 µM.

In turn, `Cc1ccccc1-c1ccc(C(=O)N2Cc3ccc(C(=O)NCCCCc4ccccc4)n3Cc3ccccc32)cc1C` [Example 56] registered a melting point of 129 to 131 °C.

The compound `COc1cc(C(=O)N2Cc3ccc(C(=O)NCCc4ccc5c(c4)OCO5)n3Cc3ccccc32)ccc1-c1ccccc1C` [Example 62, N-[2-(1,3-BENZODIOXOL-5-YL)ETHYL]-10-[(2-METHOXY-2′-METHYL-1,1′-BIPHENYL-4-YL)CARBONYL]-10,11-DIHYDRO-5H-PYRROLO[2,1-C][1,4]BENZODIAZEPINE-3-CARBOXAMIDE] displayed a melting point of 178 to 179 °C.

As for `Cc1cc(Cl)ccc1OCC(=O)N1Cc2ccc(C(=O)NCc3ccc4c(c3)OCO4)n2Cc2ccccc21` [Example 76], at human FSH receptor (setting [1]), the “CRE % inhibition (μM)” value is listed as 15(30) %.
